The text below walks through data of US8828992B2, “Substituted azole derivatives, pharmaceutical composition containing the derivatives, and method for treating Parkinson's disease using the same” (priority 2009, dated 2014).

The first test addresses T1, Monoamineoxidase B type human-derived enzyme (Homo sapiens, UniProt P27338).
T1 sequence (P27338 1-520): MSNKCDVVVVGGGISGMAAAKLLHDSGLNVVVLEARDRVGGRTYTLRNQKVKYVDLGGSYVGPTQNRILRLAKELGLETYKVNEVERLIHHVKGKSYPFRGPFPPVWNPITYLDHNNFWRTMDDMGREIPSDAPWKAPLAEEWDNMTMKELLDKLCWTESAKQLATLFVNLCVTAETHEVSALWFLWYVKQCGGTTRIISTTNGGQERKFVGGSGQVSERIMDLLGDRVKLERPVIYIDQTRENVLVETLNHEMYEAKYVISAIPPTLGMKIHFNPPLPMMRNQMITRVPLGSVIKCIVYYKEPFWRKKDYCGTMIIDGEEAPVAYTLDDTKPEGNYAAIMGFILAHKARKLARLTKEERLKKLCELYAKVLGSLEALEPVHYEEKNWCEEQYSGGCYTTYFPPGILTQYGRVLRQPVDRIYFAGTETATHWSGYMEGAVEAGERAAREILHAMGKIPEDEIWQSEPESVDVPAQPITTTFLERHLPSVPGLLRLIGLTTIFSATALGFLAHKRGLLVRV
As to the kind of experiment: Inhibitory effects on the activity of MAO-B (Amplex Red fluorescence, benzylamine substrate). Format: biochemical. The settings on record: read-out: Inhibitory effects (%) on the activity of MAO-B. On the procedure:
Monoamineoxidase A or B type human-derived enzyme (5 mg/ml) was each diluted with 0.05 M sodium phosphate buffer (pH 7.4) to yield a dilution of 1:200, and then 100 μl of an enzyme buffer containing 2 μl of a compound 1 solution at the corresponding concentration was placed in a test plate (flat-bottom) and incubated for 30 minutes.
100 μl of a working buffer containing 400 μM of Amplex Red reagent, 2 U/ml horseradish peroxidase, and 2 mM substrate (tyramine for MAO-A and benzylamine for MAO-B) in 0.05 M sodium phosphate buffer (pH 7.4) was mixed with a pre-incubated enzyme buffer at 1:1 and measured using fluorescence (EX: 563 nm & EM: 587 nm) for 30 minutes.
As to `CCOC(=O)COc1ccc(-c2cc(COC(N)=O)on2)cc1` [Example 47, [4-(5-carbamoyloxymethyl-isoxazol-3-yl)-phenoxy]-acetic acid ethyl ester], the inhibition at 0.01 µM is 41.2%. On to `NC(=O)OCc1cc(-c2ccc(OCCCCO)cc2)no1` [Example 57, carbamic acid 3-[4-(4-hydroxy-butoxy)-phenyl]-isoxazol-5-ylmethyl ester], for which the inhibition at 0.01 µM was 25%. For the compound `CCCOc1ccc(-c2cc(COC(N)=O)on2)cc1` [Example 42, carbamic acid 3-(4-propoxy-phenyl)-isoxazol-5-ylmethyl ester], the inhibition at 0.01 µM was 85.3%.

Staying with this test, now noted: treatment concentration 10 nM.
Turning to “3-[4-(4-methyl-benzyloxy)-phenyl]-isoxazol-5-ylmethyl ester [Example 28]”, the “Inhibitory effects (%) on the activity of MAO-B” value stood at 87.4%.

The same test, now with this note: treatment concentration 10 nM; read-out: Inhibitory effects (%) on the activity of MAO-B.
Take `NC(=O)OCc1cc(-c2ccc(OCc3cc(Cl)ccc3Cl)cc2)no1` [Example 24, carbamic acid 3-[4-(2,5-di-chloro-benzyloxy)-phenyl]-isoxazol-5-ylmethyl ester]: the inhibition at 0.01 µM was determined as 83.3%.

For `NC(=O)OCc1cc(-c2ccc(NCc3cc(Cl)cc(Cl)c3)cc2)no1` [Example 93, carbamic acid 3-[4-(3,5-dichloro-benzylamino)-phenyl]-isoxazol-5-ylmethyl ester], the inhibition at 0.01 µM was determined as 24.1%. On the same count and under the same terms, under `NC(=O)OCc1cc(-c2ccc(NCc3cccc(Cl)c3)cc2)no1` [Example 87, Carbamic acid 3-[4-(3-chloro-benzylamino)-phenyl]-isoxazol-5-ylmethyl ester] stands 78.6%; under `CN(C)NC(=O)OCc1cc(-c2ccc(OCc3ccccc3)cc2)no1` [Example 129, N′,N′-dimethyl-hydrazinecarboxylic acid 3-(4-benzyloxy-phenyl)-isoxazol-5-ylmethyl ester], 22%.

With `COc1cccc(COc2ccc(-c3cc(COC(N)=O)on3)cc2)c1` [Example 30, Carbamic acid 3-[4-(3-methoxy-benzyloxy)-phenyl]-isoxazol-5-ylmethyl ester], the inhibition at 0.01 µM is 90.2%. On the same count and under the same terms, to `NC(=O)OCc1cc(-c2ccc(OCc3ccccc3)c(Cl)c2)no1` [Example 7, carbamic acid 3-(4-benzyloxy-3-chloro-phenyl)-isoxazol-5-ylmethyl ester] belongs 75.9%; to `NC(=O)OCc1cc(-c2ccc(NCc3cc(Cl)ccc3Cl)cc2)no1` [Example 90, carbamic acid 3-[4-(2,5-dichloro-benzylamino)-phenyl]-isoxazol-5-ylmethyl ester], 20.3%. Still for that read-out and setting: to `Cc1nccn1Cc1cc(-c2ccc(OCc3ccccc3)cc2)no1` [Example 140, 3-(4-benzyloxy-phenyl)-5-(2-methyl-imidazol-1-ylmethyl)-isoxazole] belongs 91.7%; to `NC(=O)OCc1cc(-c2ccc(OCc3cc(F)cc(F)c3)cc2)no1` [Example 16, carbamic acid 3-[4-(3,5-difluoro-benzyloxy)-phenyl]-isoxazol-5-ylmethyl ester], 96.5%; to `NC(=O)OCc1cc(-c2ccc(OCc3nc4ccccc4s3)cc2)no1` [Example 64, Carbamic acid 3-[4-(benzothiazol-2-ylmethoxy)-phenyl]-isoxazol-5-ylmethyl ester], 32.8%. On the same count and under the same terms, to `NC(=O)OCc1cc(-c2ccc(OCc3ccccc3C(F)(F)F)cc2)no1` [Example 201, carbamic acid 3-[4-(2-trifluoromethyl-benzyloxy)-phenyl]-isoxazol-5-ylmethyl ester] belongs 72.4%; to `c1ccc(COc2ccc(-c3cc(Cn4ccnc4)on3)cc2)cc1` [Example 139, 3-(4-benzyloxy-phenyl)-5-imidazol-1-ylmethyl-isoxazole], 84.6%. For the compound `COC(=O)c1ccc(COc2ccc(-c3cc(COC(N)=O)on3)cc2)o1` [Example 73, 5-[4-(5-carbamoyloxymethyl-isoxazol-3-yl)-phenoxymethyl]-furan-2-carboxylic acid methyl ester], the inhibition at 0.01 µM amounted to 58.1%. Same read-out and setting: to `NC(=O)OCc1cc(-c2ccc(NCc3c(Cl)ccc(Cl)c3Cl)cc2)no1` [Example 95, carbamic acid 3-[4-(2,3,6-trichloro-benzylamino)-phenyl]-isoxazol-5-ylmethyl ester] belongs 24.3%; to `NC(=O)OCc1cc(-c2ccc(NCc3ccc(F)cc3)cc2)no1` [Example 76, Carbamic acid 3-[4-(4-fluoro-benzylamino)-phenyl]-isoxazol-5-ylmethyl ester], 87%; to `NC(=O)OCc1cc(-c2ccc(OCc3cccc(C(F)(F)F)c3)cc2)no1` [Example 19, carbamic acid 3-[4-(3-trifluoromethyl-benzyloxy)-phenyl]-isoxazol-5-ylmethyl ester], 94.2%. Still for that read-out and setting: to `NC(=O)OCc1cc(-c2ccc(OCc3ccc(F)cc3)cc2)no1` [Example 13, carbamic acid 3-[4-(4-fluoro-benzyloxy)-phenyl]-isoxazol-5-ylmethyl ester] belongs 102%; to `CN(C)Cc1cc(-c2ccc(OCc3ccccc3)cc2)no1` [Example 150, [3-(4-benzyloxy-phenyl)-isoxazol-5-ylmethyl]-dimethyl-amine], 97.4%; to `CC(Oc1ccc(-c2cc(COC(N)=O)on2)cc1)c1ccccc1` (stereo not drawn) [Example 10, carbamic acid 3-[4-(1-phenyl-ethoxy)-phenyl]-isoxazol-5-ylmethyl ester], 98.2%. Same read-out and setting: under `COc1c(C)cc(COc2ccc(-c3cc(COC(N)=O)on3)cc2)nc1C` [Example 68, Carbamic acid 3-[4-(5-methoxy-4,6-dimethyl-pyridin-2-ylmethoxy)-phenyl]-isoxazol-5-ylmethyl ester] stands 63.4%; under `NC(=O)OCc1cc(-c2ccc(OCc3c(F)cc(F)cc3F)cc2)no1` [Example 18, carbamic acid 3-[4-(2,4,6-trifluoro-benzyloxy)-phenyl]-isoxazol-5-ylmethyl ester], 91.5%; under `CC(C)c1nccn1Cc1cc(-c2ccc(OCc3ccccc3)cc2)no1` [Example 179, 3-(4-benzyloxy-phenyl)-5-(2-isopropyl-imidazol-1-ylmethyl)-isoxazole], 26.7%. In the case of `NC(=O)OCc1cc(-c2ccc(NCc3ccc(Cl)c(Cl)c3)cc2)no1` [Example 92, carbamic acid 3-[4-(3,4-dichloro-benzylamino)-phenyl]-isoxazol-5-ylmethyl ester], the inhibition at 0.01 µM turned out to be 75.2%. Still for that read-out and setting: to `NC(=O)OCc1cc(-c2ccc(OCc3ccc(C=O)cc3)cc2)no1` [Example 36, carbamic acid 3-[4-(4-formyl-benzyloxy)-phenyl]-isoxazol-5-ylmethyl ester] belongs 90.1%. Turning to `c1ccc(COc2ccc(-c3cc(Cn4ccnn4)on3)cc2)cc1` [Example 145, 1-[3-(4-benzyloxy-phenyl)-isoxazol-5-ylmethyl]-1H-[1,2,3]triazole], the inhibition at 0.01 µM came to 39.2%.

The test is the same for the next values; noted with them: treatment concentration 100 nM.
As for `NC(=O)OCc1cc(-c2ccc(OCc3ccc(F)cc3F)cc2)no1` [Example 196, carbamic acid 3-[4-(2,4-difluoro-benzyloxy)-phenyl]-isoxazol-5-ylmethyl ester], the inhibition at 0.1 µM came out at 97.1%.
